We go through six molecules from patent publication US20090298708A1, “2'-DEOXY-2'-FLUORO-BETA-D-ARABINONUCLEOSIDE 5'-TRIPHOSPHATES AND THEIR USE IN ENZYMATIC NUCLEIC ACID SYNTHESIS” (priority 2006, published 2009).

Each structure is given as a SMILES string. “Also recorded” adds a separate entry of the source. Marks after values point to notes of the source that are not given here. Some results are limits rather than exact numbers.

For test [1], the target named is T1, 9° Nm™ DNA polymerase (9N) (Thermococcus sp., UniProt Q56366, E143D).
T1 construct: purchased New England Biolabs; host or cells: E. coli
The test is described as follows: Primer extension assay with 9°Nm DNA polymerase. The class given is biochemical, Thermococcus species (strain 9° N-7). Further details: key to Incorporation of three 2′F-araTTP / 2′F-araCTP (incorporation efficiency) / Enzymatic activity during primer extension reactions: ++++: excellent (no pausing observed); +++: very good (with slight pausing); ++: Good, full-length products with significant pausing; +: significant pausing, no full-length product but at least one 2′F-araN incorporation detected. The following applies: for Incorporation of three 2′F-araTTP / 2′F-araCTP (incorporation efficiency): DNA template PF22 (2′F-araTTP) or PF24 (2′F-araCTP); for Order of efficiency of incorporation: DNA template PF22 (T/U triphosphates) or PF24 (C triphosphates), three contiguous units; for Enzymatic activity during primer extension reactions: plus dATP, dGTP; for full-length products generated: DNA template PF22, within 2 min, without pausing. As to the method: (§1) Various different types of DNA polymerases were assessed, including the mesophilic enzyme Klenow fragment of DNA pol I (3′→5′ exo-) (“Kf”); the thermophilic DNA polymerases DV, 9N, Taq, Bst pol I, Th and Ph; and the viral reverse transcriptases HIV RT and MMLV. Kf is a genetically engineered proteolytic product of E. coli pol A gene that encodes DNA polymerase I which retains polymerase activity but has a mutation which abolishes the 3′->5′ and 5′->3′ exonuclease activities. DV is a genetically engineered DNA polymerase purified from a strain of E. coli that carries the DV DNA polymerase gene from Pyrococcus species GB-D. The gene has been engineered to eliminate 3′->5′ proofreading exonuclease activity. 9N is a genetically engineered DNA polymerase that has decreased 3′->5′ proofreading exonuclease activity. 9N is purified from a strain of E. coli that carries a modified 9° N DNA polymerase gene from Thermococcus species (strain 9° N-7). […] Taq polymerase is isolated from E. coli engineered to express Taq polymerase from Thermus aquaticus YT-1. Bst DNA polymerase (Large fragment) is a genetically engineered polymerase that consists of the portion of the Bacillus stearothemmophilus DNA polymerase protein responsible for 5′->3′ polymerase activity but lacks the 5′->3′ exonuclease domain. Th DNA polymerase is a genetically engineered, archaeon-derived DNA polymerase that is a variant of the 9N polymerase described above. The recombinant protein is isolated from E. coli engineered to express 9° NA485L (exo-) DNA polymerase gene, a genetic variant of the native DNA polymerase from Thermococcus species 9° N-7. Ph is a recombinant DNA polymerase that consists of a novel Pyrococcus-like enzyme fused with a double-strand DNA-binding and processivity-enhancing domain.
(§2) Primer extension assays were used to assess the incorporation of 2′F-araNTP on the various DNA templates (Table 1). The DNA primer (PF20) was first radioactively labeled at the 5′-hydroxyl terminus with a radioactive phosphorus probe and the enzyme T4 polynucleotide kinase (T4 PNK) (see Example 1 for General Methods). To assess the incorporation of 2′F-araNTPs, the primer and template were annealed, and the nucleoside 5′-triphosphates added in the presence of enzyme under the conditions specified in Table 2. Time points were obtained by analyzing small aliquots from the reaction mixture through polyacryamide gel electrophoresis (PAGE) and autoradiography.
(§3) Unless otherwise noticed in the Examples described below, the conditions used in the primer extension assays, such as dNTP concentration, reaction temperatures, concentration of Mg^2+, and reaction buffers (provided by the manufacturers, except for the HIV buffer which was prepared in-house) are shown in Table 2.
(§4) Primer extension assays were used to assess the incorporation of 2′F-araTTP on the DNA template (PF22). The DNA primer (PF20) was first radioactively labeled at the 5′-hydroxyl terminus with a radioactive phosphorus probe and the enzyme T4 polynucleotide kinase (T4 PNK) according to the manufacturer's specifications (MBI Fermentas Life Sciences, Burlington, ON). Incorporation of the ^32P label was accomplished in reaction mixtures consisting of DNA substrate (200 pmol), 2 μl loxreaction buffer (Buffer A for forward reaction: 500 mM Tris-HCl, pH 7.6 at 25° C., 100 mM MgCl2, 50 mM DTT, 1 mM spermidine and 1 mM EDTA), 1 μl T4 PNK enzyme solution (10 U/1 μl in a solution of 20 mM Tris-HCl, pH 7.5, 25 mM KCl, 0.1 mM EDTA, 2 mM DTT and 50% glycerol), 6 μl [γ-^32P]-ATP solution (6000 Ci/mmol, 10 mCi/ml; Amersham Biosciences, Inc.) and autoclaved sterile water to a final volume of 20 μl. The reaction mixture was incubated for about 45-60 min at 37° C., followed by a second incubation for 10 min at 95° C. to heat denature and deactivate the kinase enzyme.

The target in test [2] is T2, Deep Vent® (3′→5′ exo-) DNA polymerase (DV) (Pyrococcus sp., UniProt Q51334, D141A/DEL493-1029/E143A).
T2 construct: purchased New England Biolabs; host or cells: E. coli
Put plainly: Primer extension assay with Deep Vent (exo-) DNA polymerase. The class given is biochemical, Pyrococcus species GB-D. More on the design: key to Incorporation of three 2′F-araTTP / 2′F-araCTP (incorporation efficiency) / Enzymatic activity during primer extension reactions: ++++: excellent (no pausing observed); +++: very good (with slight pausing); ++: Good, full-length products with significant pausing; +: significant pausing, no full-length product but at least one 2′F-araN incorporation detected. The following applies: for Incorporation of three 2′F-araTTP / 2′F-araCTP (incorporation efficiency): DNA template PF22 (2′F-araTTP) or PF24 (2′F-araCTP); for Order of efficiency of incorporation: DNA template PF22 (T/U triphosphates) or PF24 (C triphosphates), three contiguous units; for Enzymatic activity during primer extension reactions: plus dATP, dGTP. As to the method:
as §1, §2, §3, §4

In test [3] the test system is Phusion DNA polymerase (Ph). Put plainly: Dropout assay, fidelity of incorporation by Ph. Particulars: 30 min reaction time, 55° C., templates PF21, PF41. The class given is biochemical. From the text: FIG. 13 illustrates the fidelity of 2′F-araNTP incorporation on pyrimidine rich DNA template PF21 by Ph DNA polymerase. […] Template PF41 and primer PF20 are shown; PF39 is a 27-nt DNA control.
FIG. 14 illustrates the fidelity of 2′F-araNTP incorporation on purine rich DNA template PF41 by Ph DNA polymerase. The base sequence of the primer, DNA template and resulting terminated products in different dropout conditions (condition 1-5) is shown. […] Lane 1: dNTPs; 2: drop out dCTP (i.e. dATP, dGTP and dTTP, shorten as AGT, same coding for lanes 3-5), lane 6: 2′F-araNTPs; 7: drop out 2′F-araCTP (i.e. 2′F-araATP, 2′F-araGTP, 2′F-araTTP, shorten as AGT; same coding for lanes 8-10). The template PF41 and the primer PF20 are shown; PF39 is a 27mer DNA control.
For example, the 2′F-araNTP of interest is removed from the pool, and the ensuing synthesis on DNA template (e.g. PF21, PF23, PF41, PF43) assessed in comparison with a control reaction containing all four 2′F-araNTPs. For comparison, dropout experiments containing dNTPs are run in parallel. […] Apparent fidelity was calculated according to the equation:
1−[(% full-length−2′F-araNTP)/(% full-length+2′F-araNTP)]
In one of these assays, 2′F-araATP was removed from the pool, and the ensuing synthesis assessed in comparison with a control reaction containing all four 2′F-araNTPs. For comparison, dropout experiments containing dNTPs were run in parallel (FIGS. 11-14).
Phusion DNA polymerase (Ph) was evaluated for fidelity of 2′F-araNTP incorporation using the same dropout assay. All four dropout experiments were conducted with the same DNA template PF21 (FIG. 13), or PF41 (FIG. 14).

Setting [4] is: Example 3, DNA template PF24, 3x 2′F-araCTP, dTTP, 55° C.
[5] abbreviates: Example 2, DNA template PF22, 3x 2′F-araTTP, dCTP, at 37° C.

For the molecule `Nc1ccn([C@@H]2O[C@H](COP(=O)(O)OP(=O)(O)OP(=O)(O)O)[C@@H](O)[C@@H]2F)c(=O)n1` [2′F-araCTP, 1-(2-deoxy-2-fluoro-β-D-arabinofuranosyl)cytosine 5′-triphosphate], the “Incorporation of three 2′F-araTTP / 2′F-araCTP (incorporation efficiency)” value in test [1] (37° C.) is recorded as “None”; in test [1] (55° C.) it was “++++”; in test [2] (37° C.), “+++”; in test [2] (55° C.), “++++”. The “Order of efficiency of incorporation” value in test [1] (55° C.) is listed as “dCTP~2′F-araCTP~2′F-rCTP”; in test [2] (55° C.), “dCTP~2′F-rCTP~2′F-araCTP”. Also, the “Enzymatic activity during primer extension reactions” value was “+++” in test [1] (setting [4]) and “++++” in test [2] (setting [4]). For the same molecule, the “% Apparent Fidelity, 2′F-araNTP” value in test [3] is given as “C: >99%”.

For the molecule `Cc1cn([C@@H]2O[C@H](COP(=O)(O)OP(=O)(O)OP(=O)(O)O)[C@@H](O)[C@@H]2F)c(=O)[nH]c1=O` [2′F-araTTP, 1-(2-deoxy-2-fluoro-β-D-arabino-furanosyl)thymine 5′-triphosphate], the “Incorporation of three 2′F-araTTP / 2′F-araCTP (incorporation efficiency)” value in test [1] (37° C.) and in test [2] (37° C.) was “++++” each time. Further, the “Order of efficiency of incorporation” value in test [1] (55° C.) and in test [2] (55° C.) was “dTTP~2′F-araTTP > 2′F-rUTP” each time. In test [1] (55° C.), the full-length products generated entry is recorded as “ca. 100%”. For the same molecule, the “Enzymatic activity during primer extension reactions” value in test [1] (setting [5]) and in test [2] (setting [5]) was “+++^b” throughout. For the same molecule, the “yield of full length product” value in test [2] (DNA template PF22, after 5 min, 55° C.) is reported as “nearly quantitative yield; also recorded: near quantitative yield”. Besides, the “% Apparent Fidelity, 2′F-araNTP” value in test [3] is on record as “T: >99%”.

As to `Nc1ccn([C@@H]2O[C@H](COP(=O)(O)OP(=O)(O)OP(=O)(O)O)[C@@H](O)[C@H]2F)c(=O)n1` [2′F-rCTP, 1-(2-deoxy-2-fluoro-β-D-ribofuranosyl) cytosine 5′-triphosphate, reference compound], the “Order of efficiency of incorporation” value is “dCTP~2′F-araCTP~2′F-rCTP” in test [1] (55° C.) and “dCTP~2′F-rCTP~2′F-araCTP” in test [2] (55° C.).

Regarding `O=c1ccn([C@@H]2O[C@H](COP(=O)(O)OP(=O)(O)OP(=O)(O)O)[C@@H](O)[C@H]2F)c(=O)[nH]1` [2′F-rUTP, 1-(2-deoxy-2-fluoro-β-D-ribo-furanosyl)uracil 5′-triphosphate, reference compound], the “Order of efficiency of incorporation” value in test [1] (55° C.) and in test [2] (55° C.) was “dTTP~2′F-araTTP > 2′F-rUTP” throughout. Further, the expected full-length product result in test [1] (DNA template PF22, after one hour, 55° C.) is recorded as “ca. 20%”. The desired full-length product in test [2] (DNA template PF22, after 9.5 h, 55° C.) is reported as 20%.

Regarding `Nc1ccn([C@H]2C[C@H](O)[C@@H](COP(=O)(O)OP(=O)(O)OP(=O)(O)O)O2)c(=O)n1` [dCTP], the “Order of efficiency of incorporation” value in test [1] (55° C.) was “dCTP~2′F-araCTP~2′F-rCTP”; in test [2] (55° C.), “dCTP~2′F-rCTP~2′F-araCTP”. Moreover, the “% Apparent Fidelity, dNTP” value in test [3] is listed as greater than 99%.

Turning to `Cc1cn([C@H]2C[C@H](O)[C@@H](COP(=O)(O)OP(=O)(O)OP(=O)(O)O)O2)c(=O)[nH]c1=O` [dTTP, reference compound], in test [1] (55° C.), the “Order of efficiency of incorporation” value is reported as “dTTP~2′F-araTTP > 2′F-rUTP” and the full-length products generated result is given as “ca. 100%”. Also, the “Order of efficiency of incorporation” value in test [2] (55° C.) is “dTTP~2′F-araTTP > 2′F-rUTP”. Besides, the “% Apparent Fidelity, dNTP” value in test [3] is recorded as greater than 99%.
